Results from patent US10272102B2, “Hydroxyalkyl starch for the treatment of hematological neoplasms” (FRESENIUS KABI DEUTSCHLAND GMBH, priority 2013, dated 2019).

What was measured:
[1] = tested on: KU812; assay: Prestoblue fluorescence cell viability assay, KU812; type: cell-based; details: KU812 (CML), 72 h incubation
Procedure: (§1) The objective of this study was to investigate potential effects of hydroxyethyl starch (“HES 130/0.4”) on cell viability of different leukemia cell lines. The 50% inhibition concentration (IC50) was determined in 28 different leukemia cell lines using the commercially available “Prestoblue fluorescence cell viability assay” after incubation with different “HES 130/0.4” concentrations for screening reasons. The concentration range of the tested HES was 100 mg/ml-[…].
(§2) PrestoBlue® reagent is a resazurin-based solution that functions as a cell viability indicator by using the reducing power of living cells to quantitatively measure the proliferation of cells. […] This change can be detected using fluorescence or absorbance measurements (see e.g. Int J Microbiol. 2013; 2013: 420601; published online Apr. 4, 2013 doi: 10.1155/2013/420601 PMCID PMC3638707). […]
(§3) Cells were harvested during the logarithmic growth period and counted using the commercially available cell counting device Countstar. […]
(§4) The test plate was incubated for 72 h in a humidified incubator at 37° C. with 5% CO2, and then measured by means of PrestoBlue assay. […] The plate was then incubated at room temperature for 30 minutes until fluorescence (T0) could be recorded using EnVision Multi Label Reader (Excitation: 540-570 nm/Emission: 580-610 nm). […]

[2] = tested on: JVM-2; assay: Prestoblue fluorescence cell viability assay, JVM-2; type: cell-based; details: JVM-2 (CLL), 72 h incubation
Procedure: as §1, §2, §3, §4

[3] = tested on: NALM 6; assay: Prestoblue fluorescence cell viability assay, NALM 6; type: cell-based; details: NALM 6 (ALL), 72 h incubation
Procedure: as §1, §2, §3, §4

[4] = tested on: MUTZ-5; assay: Prestoblue fluorescence cell viability assay, MUTZ-5; type: cell-based; details: MUTZ-5 (ALL), 72 h incubation
Procedure: as §1, §2, §3, §4

[5] = tested on: HL-60; assay: Prestoblue fluorescence cell viability assay, HL-60; type: cell-based; details: HL-60 (AML), 72 h incubation
Procedure: as §1, §2, §3, §4

[6] = tested on: NB4; assay: Prestoblue fluorescence cell viability assay, NB4; type: cell-based; details: NB4 (AML), 72 h incubation
Procedure: as §1, §2, §3, §4

[7] = tested on: SUP-B15; assay: Prestoblue fluorescence cell viability assay, SUP-B15; type: cell-based; details: SUP-B15 (ALL), 72 h incubation
Procedure: as §1, §2, §3, §4

[8] = tested on: MEC-2; assay: Prestoblue fluorescence cell viability assay, MEC-2; type: cell-based; details: MEC-2 (CLL), 72 h incubation
Procedure: as §1, §2, §3, §4

[9] = tested on: ML-2; assay: Prestoblue fluorescence cell viability assay, ML-2; type: cell-based; details: ML-2 (AML), 72 h incubation
Procedure: as §1, §2, §3, §4

[10] = tested on: RS4;11; assay: Prestoblue fluorescence cell viability assay, RS4;11; type: cell-based; details: RS4;11 (ALL), 72 h incubation
Procedure: as §1, §2, §3, §4

[11] = tested on: MEG-01; assay: Prestoblue fluorescence cell viability assay, MEG-01; type: cell-based; details: MEG-01 (CML), 72 h incubation
Procedure: as §1, §2, §3, §4

[12] = tested on: Kasumi-1; assay: Prestoblue fluorescence cell viability assay, Kasumi-1; type: cell-based; details: Kasumi-1 (AML), 72 h incubation
Procedure: as §1, §2, §3, §4

[13] = tested on: Jurkat; assay: Prestoblue fluorescence cell viability assay, Jurkat; type: cell-based; details: Jurkat (ALL), 72 h incubation
Procedure: as §1, §2, §3, §4

[14] = tested on: THP-1; assay: Prestoblue fluorescence cell viability assay, THP-1; type: cell-based; details: THP-1 (AML), 72 h incubation
Procedure: as §1, §2, §3, §4

[15] = tested on: MEC-1; assay: Prestoblue fluorescence cell viability assay, MEC-1; type: cell-based; details: MEC-1 (CLL), 72 h incubation
Procedure: as §1, §2, §3, §4

[16] = tested on: PEER IE6; assay: Prestoblue fluorescence cell viability assay, PEER IE6; type: cell-based; details: PEER IE6 (ALL), 72 h incubation
Procedure: as §1, §2, §3, §4

[17] = tested on: Molt-4; assay: Prestoblue fluorescence cell viability assay, Molt-4; type: cell-based; details: Molt-4 (ALL), 72 h incubation
Procedure: as §1, §2, §3, §4

[18] = tested on: MHH-CALL-2; assay: Prestoblue fluorescence cell viability assay, MHH-CALL-2; type: cell-based; details: MHH-CALL-2 (ALL), 72 h incubation
Procedure: as §1, §2, §3, §4

[19] = tested on: EHEB; assay: Prestoblue fluorescence cell viability assay, EHEB; type: cell-based; details: EHEB (CLL), 72 h incubation
Procedure: as §1, §2, §3, §4

[20] = tested on: Reh; assay: Prestoblue fluorescence cell viability assay, Reh; type: cell-based; details: 72 h incubation
Procedure: as §1, §2, §3, §4

[21] = tested on: MOLM-13; assay: Prestoblue fluorescence cell viability assay, MOLM-13; type: cell-based; details: MOLM-13 (AML), 72 h incubation
Procedure: as §1, §2, §3, §4

[22] = tested on: CCRF-SB; assay: Prestoblue fluorescence cell viability assay, CCRF-SB; type: cell-based; details: CCRF-SB (ALL), 72 h incubation
Procedure: as §1, §2, §3, §4

[23] = tested on: JVM-13; assay: Prestoblue fluorescence cell viability assay, JVM-13; type: cell-based; details: JVM-13 (CLL), 72 h incubation
Procedure: as §1, §2, §3, §4

[24] = tested on: K-562; assay: Prestoblue fluorescence cell viability assay, K-562; type: cell-based; details: K-562 (CML), 72 h incubation
Procedure: as §1, §2, §3, §4

[25] = tested on: MV-4-11; assay: Prestoblue fluorescence cell viability assay, MV-4-11; type: cell-based; details: MV-4-11 (AML), 72 h incubation
Procedure: as §1, §2, §3, §4

[26] = tested on: MOLM-16; assay: Prestoblue fluorescence cell viability assay, MOLM-16; type: cell-based; details: MOLM-16 (AML), 72 h incubation
Procedure: as §1, §2, §3, §4

[27] = tested on: TF-1; assay: Prestoblue fluorescence cell viability assay, TF-1; type: cell-based; details: TF-1 (AML), 72 h incubation
Procedure: as §1, §2, §3, §4

[28] = tested on: JVM-3; assay: Prestoblue fluorescence cell viability assay, JVM-3; type: cell-based; details: JVM-3 (CLL), 72 h incubation
Procedure: as §1, §2, §3, §4

[29] = tested on: human acute myelogeneous leukemia EOL-1 cell line; assay: s.c. EOL-1 xenotransplantation model, tumor growth; type: in vivo; details: EOL-1 tumor-bearing male NOD/SCID mice; 75 mg/kg i.p. single dose (day 0)
Procedure: For calculation of the relative tumor volume (RTV) the tumor volumes at each measurement day were related to the day of first treatment. At each measurement day the median and mean tumor volumes per group and also the treated to control (T/C) values in percent were calculated.

With N.N.[Cl][Pt][Cl] [Cisplatin, cisplatin] the IC50 [1] was 250 µg/mL, the Max-inhibition [1] was 100% and the IC50 [2] was 180 µg/mL. For the same molecule, the Max-inhibition [2] was 100%, the IC50 [3] was 240 µg/mL and the Max-inhibition [3] was 100%. It also gave an IC50 [4] of 190 µg/mL, a Max-inhibition [4] of 100% and an IC50 [5] of 450 µg/mL. It also gave a Max-inhibition [5] of 100%, an IC50 [6] of 140 µg/mL and a Max-inhibition [6] of 100%. It also gave an IC50 [7] of 450 µg/mL, a Max-inhibition [7] of 100% and an IC50 [8] of 1670 µg/mL. It also gave a Max-inhibition [8] of 100%, an IC50 [9] of 350 µg/mL and a Max-inhibition [9] of 100%. The IC50 [10] was 50 µg/mL, the Max-inhibition [10] was 100% and the IC50 [11] was 830 µg/mL. The Max-inhibition [11] was 100%, the IC50 [12] was 780 µg/mL and the Max-inhibition [12] was 100%. For the same molecule, the IC50 [13] was 200 µg/mL, the Max-inhibition [13] was 100% and the IC50 [14] was 640 µg/mL. It also gave a Max-inhibition [14] of 100%, an IC50 [15] of 1150 µg/mL and a Max-inhibition [15] of 100%. It also gave an IC50 [16] of 3730 µg/mL, a Max-inhibition [16] of 100% and an IC50 [17] of 150 µg/mL. It also gave a Max-inhibition [17] of 100%, an IC50 [18] of 140 µg/mL and a Max-inhibition [18] of 100%. The IC50 [19] was 490 µg/mL, the Max-inhibition [19] was 100% and the Max-inhibition ([20]; Reh (AML)) was 100%. The IC50 ([20]; Reh (B-ALL)) was 170 µg/mL, the IC50 [21] was 340 µg/mL and the Max-inhibition [21] was 100%. It also gave an IC50 [22] of 100 µg/mL, a Max-inhibition [22] of 100% and an IC50 [23] of 180 µg/mL. For the same molecule, the Max-inhibition [23] was 100%, the IC50 [24] was 1290 µg/mL and the Max-inhibition [24] was 100%. For the same molecule, the IC50 [25] was 160 µg/mL, the Max-inhibition [25] was 100% and the IC50 [26] was 650 µg/mL. For the same molecule, the Max-inhibition [26] was 100%, the IC50 [27] was 1720 µg/mL and the Max-inhibition [27] was 100%. It also gave an IC50 [28] of 270 µg/mL and a Max-inhibition [28] of 100%.

With O=P1(N(CCCl)CCCl)NCCCO1 (stereo not drawn) [Cyclophosphamide] the “inhibition of tumor growth” value [29] was “significant inhibition”.
